Consider ten compounds from publication PMC11931645, “Semisynthetic derivatives of massarilactone D with cytotoxic and nematicidal activities” (Beilstein Journal of Organic Chemistry, 2025).

Data set [1] deals with L929, KB3-1, A549, PC-3, A431, SKOV-3 and MCF-7 cell lines. Description: Cytotoxicity, MTT method, statements over the cell line panel. It is filed as cell-based. As to the method:
(§1) The cytotoxicity against the murine fibroblasts L929, human cervix carcinoma KB-3-1, human lung carcinoma A549, human prostate cancer PC-3, epidermoid carcinoma A431, ovarian carcinoma SKOV-3, and breast cancer MCF-7 cell lines was determined by using the MTT (2-(4,5-dimethylthiazol-2-yl)-2,5-diphenyltetrazolium bromide) method in 96-well microplates as previously described. Briefly, the cell lines were cultured in DMEM (Gibco), 60 µL aliquots of serial dilutions from an initial stock of 1 mg/mL in MeOH of the test compounds were added to 120 µL aliquots of a cell suspension (5 × 10^4 cells/mL) in 96-well microplates. After 5 days incubation, an MTT assay was performed, and the absorbance measured at 590 nm using an ELISA plate reader (Victor). The concentration at which the growth of cells was inhibited to 50% of the control (IC50) was obtained from the dose–response curves. Epothilone B was used as the positive control.
For orientation: Formazan colour is commonly taken as a measure of viable cells.

Details of data set [2]: method as in PMID 28991218. Particulars: cited from earlier work.
On the set-up of data set [3]: method as in PMID 28991218. The note with it: cited from earlier work. The source holds these as a separate data set.
The next data set has as its system Caenorhabditis elegans. The experiment in a line: Nematicidal activity, microtiter plate assay. It is filed as cell-based. The note with it: for LD50 / LD90 / nematicidal activity (in words): C. elegans; for LD50 / LD90: tested at 100, 50, 25 and 12.5 μg/mL, no: not obtained; for mortality: at concentrations of 50 and 100 μg/mL. As to the method:
Nematicidal activity was performed using Caenorhabditis elegans in a microtiter plate assay as described by Rupcic et al. (2018). The assay was performed in four concentrations (100, 50, 25 and 12.5 μg/mL). Ivermectin was used as a positive control at the same concentration ranges as the tested compounds and MeOH was used as a negative control. Percentages of mortality were calculated, then the results were expressed as a LD90 and LD50.

In data set [4] the test system is human cervix carcinoma KB-3-1. Description: Cytotoxicity, MTT method, KB-3-1. It is filed as cell-based. The note with it: KB 3-1, 120 h, 5 days incubation, na: not active, read-out: IC50 KB3.1. As to the method: as §1
Data set [5] has as its system epidermoid carcinoma A431. Description: Cytotoxicity, MTT method, A431. It is filed as cell-based. The note with it: Homo sapiens, A-431, 120 h, 5 days incubation, na: not active. As to the method: as §1
For the next data set, the system named is breast cancer MCF-7. Description: Cytotoxicity, MTT method, MCF-7. Particulars: Homo sapiens, MCF7, 120 h, read-out: IC50 MCF-7. It is filed as cell-based. As to the method: as §1
Data set [6] relates to human prostate cancer PC-3. Description: Cytotoxicity, MTT method, PC-3. It is filed as cell-based. Particulars: 120 h, read-out: IC50 PC-3. The protocol:
as §1

The next data set has as its system murine fibroblasts L929. The experiment in a line: Cytotoxicity, MTT method, L929. It is filed as cell-based. Particulars: Mus musculus, L929, 120 h, read-out: IC50 L929. As to the method: as §1
Data set [7] deals with human lung carcinoma A549. Description: Cytotoxicity, MTT method, A549. It is filed as cell-based. Particulars: A549, 120 h, 5 days incubation, na: not active. As to the method: as §1
The next data set deals with ovarian carcinoma SKOV-3. Description: Cytotoxicity, MTT method, SKOV-3. It is filed as cell-based. The note with it: Homo sapiens, SK-OV-3, 120 h, 5 days incubation, na: not active. The protocol: as §1
For the next data set, the system named is A549. More on the design: method as in PMID 36006179. Particulars: human cancer cell line; cited from earlier work.
In the next data set the test system is Hs683. More on the design: method as in PMID 36006179. Particulars: human cancer cell line; cited from earlier work.
A further data set relates to SKMEL-28. More on the design: method as in PMID 36006179. Particulars: human cancer cell line; cited from earlier work.
Where [8] appears, read: MTT, 5 days incubation, na: not active.
[9] abbreviates: all tested cell lines, read-out: IC50 values, range against all the tested cell lines.
The mark [10] stands for this setting: read-out: IC50 values, range against the L929 and KB3-1 cell lines.

Entries after “also recorded” stand apart in the source; their conditions may differ. Where two headings read alike, the source gives them in different places.

Consider `C/C=C/[C@@H]1OC2=C(C(=O)O[C@]2(C)O)[C@H](O)[C@H]1O` [Compound 1, Massarilactone D], for which the “cytotoxic activity (in words)” value in data set [1] (all tested cell lines) is “not active”. The “cytotoxic activity (in words)” value in data set [2] is on record as “did not exhibit significant antimicrobial or cytotoxic activities”. Also, in data set [3], the “antimicrobial activity (in words)” value is “did not exhibit significant antimicrobial”. Also, in the data set with Caenorhabditis elegans, the LD50 entry was “not obtained and no”; the LD90 result is listed as “no”; the mortality entry is “some mortality”.

One may read the IC50 as the concentration that inhibits the measured activity by half. Take `C=C(C)C(=O)O[C@H]1[C@H](/C=C/C)OC2=C(C(=O)O[C@]2(C)OC(=O)C2(C)CCC(C)=C(Cl)O2)[C@@H]1OC(=O)C(=C)C` (stereo partly drawn) [Compound 2, massarilactone D 3,4-di-O-methacryloyl-7-O-(6-chloro-3,4-dihydro-2,5-dimethyl-2H-pyran-2-carbonyl)]: the concentration for half-maximal inhibition (IC50) in [4] was 13.1 µM; in [5], 4 µM; with breast cancer MCF-7 (setting [8]), 7.09 µM; in data set [6] (setting [8]), 11.8 µM; in data set [1] (setting [9]), 3.51 to 32.7 µM; in the data set with murine fibroblasts L929 (setting [8]), 5.09 µM. Besides, the half-maximal inhibitory concentration (IC50) is 32.7 µM in [7] and 11.8 µM in the data set on ovarian carcinoma SKOV-3. Further, in data set [1] (all tested cell lines), the “cytotoxic activity (in words)” value was “significant cytotoxicity”.

Consider `C=C1OC(=O)C2=C1O[C@@H](/C=C/C)[C@H](OC(=O)/C=C/c1ccccc1)[C@H]2OC(=O)/C=C/c1ccccc1` [Compound 3, massarilactone H 3,4-di-O-trans-cinnamoyl], for which the IC50 is 7.85 µM in data set [4]; 4.34 µM in data set [5]; 3.51 µM in the data set on breast cancer MCF-7 (setting [8]); 7.64 µM in [6] (setting [8]); 3.51 to 32.7 µM in [1] (setting [9]); 5.58 µM with murine fibroblasts L929 (setting [8]). The values for the concentration for half-maximal inhibition (IC50) (in data set [7]; in the data set with ovarian carcinoma SKOV-3) were 19.6 µM and 13.2 µM, respectively. Besides, in data set [1] (all tested cell lines), the “cytotoxic activity (in words)” value is listed as “significant cytotoxicity”. In addition, the “nematicidal activity (in words)” value with Caenorhabditis elegans was “did not exhibit nematicidal activity”.

As for `C/C=C/[C@@H]1OC2=C(C(=O)O[C@]2(C)OC(=O)/C=C/c2ccccc2)[C@H](OC(=O)/C=C/c2ccccc2)[C@H]1OC(=O)/C=C/c1ccccc1` [Compound 4, massarilactone D 3,4,7-tri-O-trans-cinnamoyl], in the data set with Caenorhabditis elegans, the “nematicidal activity (in words)” value is “potent activity against nematodes; also recorded: good nematicidal activity”, the LD50 is 12.5 µg/mL and the LD90 was determined as 100 µg/mL.

As to `C/C=C/[C@@H]1OC2=C(C(=O)O[C@]2(C)OC(=O)c2ccc(Br)cc2)[C@H](OC(=O)c2ccc(Br)cc2)[C@H]1OC(=O)c1ccc(Br)cc1` [Compound 5, massarilactone D 3,4,7-tri-O-bromobenzoyl], in the data set on Caenorhabditis elegans, the LD50 turned out to be 100 µg/mL; the LD90 result is “not obtained and no”.

Consider `C/C=C/[C@@H]1OC2=C(C(=O)O[C@]2(C)O)[C@H](O)[C@H]1OC(=O)/C(C)=C/C` [Compound 6, massarilactone D 7-O-trans-2-methyl-2-butenoyl], for which, in the data set with Caenorhabditis elegans, the LD50 result is “not obtained and no”; the LD90 result is listed as “no”; the mortality result is reported as “some mortality”.

Turning to `C/C=C/C(=O)O[C@H]1C2=C(O[C@@H](/C=C/C)[C@@H]1O)[C@@](C)(OC)OC2=O` [Compound 7, massarilactone D 4-O-crotonyl-7-O-methyl], in data set [4], the half-maximal inhibitory concentration (IC50) was 55.6 µM. Also, the half-maximal inhibitory concentration (IC50) in data set [1] (setting [10]) was 18.5 to 61.7 µM. The concentration for half-maximal inhibition (IC50) in the data set on murine fibroblasts L929 (setting [8]) worked out at 61.7 µM. Also, in the data set on Caenorhabditis elegans, the LD50 result was “not obtained and no”; the LD90 result was “no”; the mortality result is on record as “some mortality”.

Regarding `C/C=C/C(=O)O[C@H]1C2=C(O[C@@H](/C=C/C)[C@@H]1O)[C@@](C)(OC(=O)/C=C/C)OC2=O` [Compound 8, massarilactone D 4,7-di-O-crotonyl], the IC50 in [4] was 18.5 µM; in [1] (setting [10]) it was 18.5 to 61.7 µM; in the data set on murine fibroblasts L929 (setting [8]), 50.3 µM. Besides, the LD50 result with Caenorhabditis elegans was “not obtained and no”. Besides, in the data set with Caenorhabditis elegans, the LD90 entry is given as “no”. Further, the mortality entry with Caenorhabditis elegans is on record as “some mortality”.

As for `C/C(=C\c1csc(C)n1)[C@@H]1C[C@@H]2O[C@]2(C)CCC[C@H](C)[C@H](O)[C@@H](C)C(=O)C(C)(C)[C@@H](O)CC(=O)O1` [epothilone B, Epothilone B, reference compound], the IC50 in the data set on breast cancer MCF-7 worked out at 7.5e-05 µM; in [6], 9.1e-05 µM; in the data set with murine fibroblasts L929 it was 0.0022 µM.

As for `C=C1OC(=O)C2=C1OC(/C=C/C)C(O)C2O` (stereo not drawn) [massarilactone H], the IC50 in the data set on A549 is 32.9 µM; with Hs683, 31.5 µM; with SKMEL-28, 35.2 µM.
